In patent US9670213B2, “Pteridine ketone derivative and applications thereof as EGFR, BLK, and FLT3 inhibitor” (EAST CHINA UNIVERSITY OF SCIENCE AND TECHNOLOGY, priority 2012, dated 2017):

What was measured:
Format in all cases: biochemical
EGFR-L858R = EGFR-L858R (Homo sapiens (Human), UniProt P00533, L858R); test: In vitro EGFR kinase activity assay (Z'-Lyte); settings: read-out: Inhibitory activity on EGFR kinase (IC50, nM) L858R;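 note: Cell-free kinase reaction with peptide substrate and ATP, 1.5 h at room temperature, then development step cleaving non-phosphorylated peptide, 10-point dilution series 0.051–1000 nM, phosphopeptide as 100% phosphorylation control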
Experimental: Inhibitory effects in vitro of the compounds provided in the present invention on EGFR kinase activity was tested as follows:
10 concentration gradients, from 5.1×10^−11 mol/L to 1.0×10^−6 mol/L, were set for all of the compounds to be tested.
10 μL of kinase reaction system comprised 2.5 μL of compound solution, 5 μL of Kinase/peptide mixture, and 2.5 μL of ATP solution. 5 μL of phosphopeptide solution was used in place of kinase/peptide mixture as 100% phosphorylation control. […] After thoroughly mixing the solution within the plate, the plate was incubated at room temperature for 1.5 hours. 5 μL of DevelopmentSolution was added into each well, and then the plate was incubated at room temperature for another 1 hour, and non-phosphorylated peptide was cleaved within this period. Finally, the reaction was quenched by adding 5 μL of Stop Reagent. The Plate was measured with EnVision Multilabel Reader (Perkin Elmer). Experimental data were calculated by using GraphPad Prism version 4.0. Each experiment was repeated more than three times.

PIM1 = PIM1 (Homo sapiens (Human), UniProt P11309); test: Kinase selectivity analysis (Caliper mobility shift assay); settings: for inhibition at 1 µM: read-out: % inhibition (1 μM), PIM1, 1 μM; for inhibition at 10 µM: read-out: % inhibition (10 μM), PIM1, 10 μM
Experimental: (§1) Kinase selectivity analysis: kinase selectivity experiment was performed by Shanghai ChemPartner using Caliper assay screening platform. All of kinases and other materials were purchased from commercial companies.
(§2) 3. Preparation of assay plate: 5 μL of solution from each well of the 96-well temporary plate was added into a 384-well plate, and the experiment was independently repeated.
(§3) 5. Caliper readings: experimental data were collected on Caliper.
(§4) 6. Curve fitting: 1) conversion data were replicated from Caliper program. 2) the conversion value was converted into inhibition rate, inhibition rate %=(maximum−conversion value)/(maximum−minimum)*100, wherein “maximum” represents DMSO control, and minimum represents the low control.

FLT1 = FLT1 (Homo sapiens (Human), UniProt P17948); test: as above; settings: for inhibition at 1 µM: read-out: % inhibition (1 μM), FLT1, 1 μM; for inhibition at 10 µM: read-out: % inhibition (10 μM), FLT1, 10 μM
Experimental: as §1, §2, §3, §4

C-MET = C-MET (Homo sapiens (Human), UniProt P08581); test: as above; settings: for inhibition at 1 µM: read-out: % inhibition (1 μM), 1 μM; for inhibition at 10 µM: read-out: % inhibition (10 μM), 10 μM
Experimental: as §1, §2, §3, §4

PKACa = PKACa (Homo sapiens (Human), UniProt P17612); test: as above; settings: for inhibition at 1 µM: read-out: % inhibition (1 μM), 1 μM; for inhibition at 10 µM: read-out: % inhibition (10 μM), 10 μM
Experimental: as §1, §2, §3, §4

P38a = P38a (Homo sapiens (Human), UniProt Q16539); test: as above; settings: for inhibition at 1 µM: read-out: % inhibition (1 μM), 1 μM; for inhibition at 10 µM: read-out: % inhibition (10 μM), 10 μM
Experimental: as §1, §2, §3, §4

BLK = BLK (Homo sapiens (Human), UniProt P51451); test: as above; settings: for inhibition at 1 µM: read-out: % inhibition (1 μM), 1 μM; for inhibition at 10 µM: read-out: % inhibition (10 μM), 10 μM
Experimental: as §1, §2, §3, §4

LCK = LCK (Homo sapiens (Human), UniProt P06239); test: as above; settings: for inhibition at 1 µM: read-out: % inhibition (1 μM), 1 μM; for inhibition at 10 µM: read-out: % inhibition (10 μM), 10 μM
Experimental: as §1, §2, §3, §4

FGFR1 = FGFR1 (Homo sapiens (Human), UniProt P11362); test: as above; settings: for inhibition at 1 µM: read-out: % inhibition (1 μM), FGFR1, 1 μM; for inhibition at 10 µM: read-out: % inhibition (10 μM), FGFR1, 10 μM
Experimental: as §1, §2, §3, §4

LYNA = LYNA (Homo sapiens (Human), UniProt P07948); test: as above; settings: for inhibition at 1 µM: read-out: % inhibition (1 μM), 1 μM; for inhibition at 10 µM: read-out: % inhibition (10 μM), 10 μM
Experimental: as §1, §2, §3, §4

KDR = KDR (Homo sapiens (Human), UniProt P35968); test: as above; settings: for inhibition at 1 µM: read-out: % inhibition (1 μM), 1 μM; for inhibition at 10 µM: read-out: % inhibition (10 μM), 10 μM
Experimental: as §1, §2, §3, §4

FLT3 = FLT3 (Homo sapiens (Human), UniProt P36888); test: as above; settings: for inhibition at 1 µM: read-out: % inhibition (1 μM), FLT3, 1 μM; for inhibition at 10 µM: read-out: % inhibition (10 μM), FLT3, 10 μM
Experimental: as §1, §2, §3, §4

CDK2 = CDK2 (Homo sapiens (Human), UniProt P24941); test: as above; settings: for inhibition at 1 µM: read-out: % inhibition (1 μM), CDK2, 1 μM; for inhibition at 10 µM: read-out: % inhibition (10 μM), CDK2, 10 μM
Experimental: as §1, §2, §3, §4

HER4 = HER4 (Homo sapiens (Human), UniProt Q15303); test: as above; settings: for inhibition at 1 µM: read-out: % inhibition (1 μM), HER4, 1 μM; for inhibition at 10 µM: read-out: % inhibition (10 μM), HER4, 10 μM
Experimental: as §1, §2, §3, §4

HER2 = HER2 (Homo sapiens (Human), UniProt P04626); test: as above; settings: for inhibition at 1 µM: read-out: % inhibition (1 μM), HER2, 1 μM; for inhibition at 10 µM: read-out: % inhibition (10 μM), HER2, 10 μM
Experimental: as §1, §2, §3, §4

GSK3b = GSK3b (Homo sapiens (Human), UniProt P49841); test: as above; settings: for inhibition at 1 µM: read-out: % inhibition (1 μM), 1 μM; for inhibition at 10 µM: read-out: % inhibition (10 μM), 10 μM
Experimental: as §1, §2, §3, §4

AUR B = AUR B (Homo sapiens (Human), UniProt Q96GD4); test: as above; settings: for inhibition at 1 µM: read-out: % inhibition (1 μM), 1 μM; for inhibition at 10 µM: read-out: % inhibition (10 μM), 10 μM
Experimental: as §1, §2, §3, §4

JAK2 = JAK2 (Homo sapiens (Human), UniProt O60674); test: as above; settings: for inhibition at 1 µM: read-out: % inhibition (1 μM), JAK2, 1 μM; for inhibition at 10 µM: read-out: % inhibition (10 μM), JAK2, 10 μM
Experimental: as §1, §2, §3, §4

ABL = ABL (Homo sapiens (Human), UniProt P00519); test: as above; settings: for inhibition at 1 µM: read-out: % inhibition (1 μM), 1 μM; for inhibition at 10 µM: read-out: % inhibition (10 μM), 10 μM
Experimental: as §1, §2, §3, §4

wild-type EGFR = wild-type EGFR (Homo sapiens (Human), UniProt P00533); test: In vitro EGFR kinase activity assay (Z'-Lyte); settings: EGFR WT; read-out: Inhibitory activity on EGFR kinase (IC50, nM) WT;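 note: Ten-point dose series from 5.1×10^−11 to 1.0×10^−6 mol/L, kinase reaction 1.5 h at room temperature, then 1 h development cleaving unphosphorylated peptide, phosphopeptide as 100% phosphorylation control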

Chain of HER2 (P04626 23-1255, species assumed): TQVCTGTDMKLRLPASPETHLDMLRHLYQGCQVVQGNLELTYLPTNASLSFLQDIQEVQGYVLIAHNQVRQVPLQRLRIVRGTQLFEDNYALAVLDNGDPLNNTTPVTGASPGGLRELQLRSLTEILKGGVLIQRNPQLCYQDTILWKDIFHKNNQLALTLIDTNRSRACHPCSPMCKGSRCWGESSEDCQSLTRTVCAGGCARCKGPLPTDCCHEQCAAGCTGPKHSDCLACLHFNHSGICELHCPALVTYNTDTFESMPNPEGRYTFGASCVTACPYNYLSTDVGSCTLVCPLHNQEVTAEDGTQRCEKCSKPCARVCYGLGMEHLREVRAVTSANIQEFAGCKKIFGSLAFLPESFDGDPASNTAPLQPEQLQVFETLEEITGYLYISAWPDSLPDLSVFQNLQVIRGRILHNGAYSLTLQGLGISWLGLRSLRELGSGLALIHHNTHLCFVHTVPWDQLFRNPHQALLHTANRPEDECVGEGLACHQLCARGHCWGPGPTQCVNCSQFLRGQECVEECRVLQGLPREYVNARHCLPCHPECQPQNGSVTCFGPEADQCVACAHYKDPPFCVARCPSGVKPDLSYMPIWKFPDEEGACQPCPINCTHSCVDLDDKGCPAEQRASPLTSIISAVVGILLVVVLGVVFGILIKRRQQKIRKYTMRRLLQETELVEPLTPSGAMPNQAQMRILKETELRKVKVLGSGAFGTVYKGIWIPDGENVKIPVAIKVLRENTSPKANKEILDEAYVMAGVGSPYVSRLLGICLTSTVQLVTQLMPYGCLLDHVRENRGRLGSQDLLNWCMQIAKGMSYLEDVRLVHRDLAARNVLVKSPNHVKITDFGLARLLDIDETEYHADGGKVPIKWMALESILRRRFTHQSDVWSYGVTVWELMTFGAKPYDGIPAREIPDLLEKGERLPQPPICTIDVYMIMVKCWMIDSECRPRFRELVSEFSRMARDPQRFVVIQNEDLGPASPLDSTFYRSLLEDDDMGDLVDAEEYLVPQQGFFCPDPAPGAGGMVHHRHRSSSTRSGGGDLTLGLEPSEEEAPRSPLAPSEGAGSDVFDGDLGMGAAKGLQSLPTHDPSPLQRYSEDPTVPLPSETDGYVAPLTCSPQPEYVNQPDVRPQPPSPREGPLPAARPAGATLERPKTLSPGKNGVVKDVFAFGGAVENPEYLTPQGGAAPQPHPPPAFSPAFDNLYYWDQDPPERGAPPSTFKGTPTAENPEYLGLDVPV
Chain of KDR (P35968 20-1356, species assumed): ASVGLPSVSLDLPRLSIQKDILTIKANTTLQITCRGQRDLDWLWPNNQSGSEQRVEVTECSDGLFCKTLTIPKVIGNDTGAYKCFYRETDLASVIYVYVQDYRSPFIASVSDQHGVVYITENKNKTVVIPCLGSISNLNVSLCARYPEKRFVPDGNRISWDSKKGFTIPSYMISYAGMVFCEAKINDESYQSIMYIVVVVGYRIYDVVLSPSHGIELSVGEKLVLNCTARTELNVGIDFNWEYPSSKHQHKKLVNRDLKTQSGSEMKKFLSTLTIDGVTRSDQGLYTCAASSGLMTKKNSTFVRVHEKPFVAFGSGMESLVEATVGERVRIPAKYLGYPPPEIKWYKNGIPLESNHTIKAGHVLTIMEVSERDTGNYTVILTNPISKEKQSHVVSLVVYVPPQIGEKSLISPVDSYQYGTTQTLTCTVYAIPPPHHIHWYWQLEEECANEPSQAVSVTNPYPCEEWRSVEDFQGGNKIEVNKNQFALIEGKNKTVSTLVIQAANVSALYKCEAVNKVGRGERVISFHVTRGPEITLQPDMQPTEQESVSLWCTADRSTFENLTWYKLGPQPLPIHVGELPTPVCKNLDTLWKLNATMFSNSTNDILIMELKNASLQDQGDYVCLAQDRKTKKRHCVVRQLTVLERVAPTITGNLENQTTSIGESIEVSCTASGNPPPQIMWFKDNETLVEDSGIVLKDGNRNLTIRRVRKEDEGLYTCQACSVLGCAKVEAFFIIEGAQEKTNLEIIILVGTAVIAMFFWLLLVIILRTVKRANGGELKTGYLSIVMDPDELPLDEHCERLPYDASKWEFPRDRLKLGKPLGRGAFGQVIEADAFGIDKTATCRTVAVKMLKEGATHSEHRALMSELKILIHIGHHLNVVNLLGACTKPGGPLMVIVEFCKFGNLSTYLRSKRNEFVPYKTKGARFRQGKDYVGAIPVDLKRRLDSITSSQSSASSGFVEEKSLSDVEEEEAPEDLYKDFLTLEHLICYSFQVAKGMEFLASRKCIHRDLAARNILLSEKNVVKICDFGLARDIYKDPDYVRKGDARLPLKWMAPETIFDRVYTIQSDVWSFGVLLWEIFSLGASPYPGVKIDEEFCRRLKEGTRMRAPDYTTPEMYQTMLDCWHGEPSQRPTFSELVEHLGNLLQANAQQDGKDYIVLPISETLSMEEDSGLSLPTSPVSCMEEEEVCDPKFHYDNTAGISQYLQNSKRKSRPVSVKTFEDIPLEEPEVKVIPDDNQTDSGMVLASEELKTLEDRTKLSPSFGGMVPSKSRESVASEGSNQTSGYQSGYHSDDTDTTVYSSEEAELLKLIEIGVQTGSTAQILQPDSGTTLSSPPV
Chain of FGFR1 (P11362 22-822, species assumed): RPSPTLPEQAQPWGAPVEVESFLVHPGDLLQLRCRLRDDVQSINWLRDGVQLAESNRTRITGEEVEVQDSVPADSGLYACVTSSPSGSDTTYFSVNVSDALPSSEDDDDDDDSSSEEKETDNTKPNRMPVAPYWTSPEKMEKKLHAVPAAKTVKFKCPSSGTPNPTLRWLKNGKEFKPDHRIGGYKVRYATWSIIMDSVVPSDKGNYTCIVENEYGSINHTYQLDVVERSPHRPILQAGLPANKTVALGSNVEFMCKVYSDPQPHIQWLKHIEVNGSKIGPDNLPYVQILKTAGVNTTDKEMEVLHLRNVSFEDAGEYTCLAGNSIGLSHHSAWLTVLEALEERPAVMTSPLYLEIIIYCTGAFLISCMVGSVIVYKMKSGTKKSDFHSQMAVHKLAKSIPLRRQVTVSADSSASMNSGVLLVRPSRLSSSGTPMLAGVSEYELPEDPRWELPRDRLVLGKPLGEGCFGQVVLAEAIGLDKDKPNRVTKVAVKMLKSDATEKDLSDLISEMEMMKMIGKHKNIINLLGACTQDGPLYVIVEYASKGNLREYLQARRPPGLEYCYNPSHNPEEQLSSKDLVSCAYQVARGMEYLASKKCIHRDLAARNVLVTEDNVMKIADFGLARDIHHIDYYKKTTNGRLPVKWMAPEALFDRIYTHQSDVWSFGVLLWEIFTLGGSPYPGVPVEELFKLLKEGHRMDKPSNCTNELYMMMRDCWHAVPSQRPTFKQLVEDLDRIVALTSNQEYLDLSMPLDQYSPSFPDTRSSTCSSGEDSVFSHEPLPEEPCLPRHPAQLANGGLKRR
Chain of LCK (P06239 whole entry, species assumed): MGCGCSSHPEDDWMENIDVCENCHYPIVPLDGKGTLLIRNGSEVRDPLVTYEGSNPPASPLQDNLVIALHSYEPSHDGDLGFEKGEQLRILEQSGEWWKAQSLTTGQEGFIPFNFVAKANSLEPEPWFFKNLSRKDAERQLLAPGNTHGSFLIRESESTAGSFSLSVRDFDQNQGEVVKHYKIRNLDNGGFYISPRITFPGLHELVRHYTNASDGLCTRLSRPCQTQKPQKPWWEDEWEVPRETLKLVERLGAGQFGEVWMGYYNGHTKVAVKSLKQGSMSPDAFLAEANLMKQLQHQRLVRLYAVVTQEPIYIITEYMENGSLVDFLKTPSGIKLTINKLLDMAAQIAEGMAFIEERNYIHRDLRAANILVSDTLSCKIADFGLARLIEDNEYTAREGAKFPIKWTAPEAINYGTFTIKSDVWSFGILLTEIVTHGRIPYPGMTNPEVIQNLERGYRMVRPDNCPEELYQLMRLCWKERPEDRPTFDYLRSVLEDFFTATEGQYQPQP
Chain of PIM1 (P11309 whole entry, species assumed): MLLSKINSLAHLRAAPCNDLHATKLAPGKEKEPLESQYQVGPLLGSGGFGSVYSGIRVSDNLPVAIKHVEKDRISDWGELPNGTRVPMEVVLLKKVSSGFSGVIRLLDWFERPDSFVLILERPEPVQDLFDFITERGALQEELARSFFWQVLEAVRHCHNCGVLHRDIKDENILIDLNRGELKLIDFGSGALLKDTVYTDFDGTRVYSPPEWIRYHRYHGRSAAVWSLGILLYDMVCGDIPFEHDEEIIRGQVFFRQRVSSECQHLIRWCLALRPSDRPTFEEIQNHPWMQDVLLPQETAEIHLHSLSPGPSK
Chain of BLK (P51451 whole entry): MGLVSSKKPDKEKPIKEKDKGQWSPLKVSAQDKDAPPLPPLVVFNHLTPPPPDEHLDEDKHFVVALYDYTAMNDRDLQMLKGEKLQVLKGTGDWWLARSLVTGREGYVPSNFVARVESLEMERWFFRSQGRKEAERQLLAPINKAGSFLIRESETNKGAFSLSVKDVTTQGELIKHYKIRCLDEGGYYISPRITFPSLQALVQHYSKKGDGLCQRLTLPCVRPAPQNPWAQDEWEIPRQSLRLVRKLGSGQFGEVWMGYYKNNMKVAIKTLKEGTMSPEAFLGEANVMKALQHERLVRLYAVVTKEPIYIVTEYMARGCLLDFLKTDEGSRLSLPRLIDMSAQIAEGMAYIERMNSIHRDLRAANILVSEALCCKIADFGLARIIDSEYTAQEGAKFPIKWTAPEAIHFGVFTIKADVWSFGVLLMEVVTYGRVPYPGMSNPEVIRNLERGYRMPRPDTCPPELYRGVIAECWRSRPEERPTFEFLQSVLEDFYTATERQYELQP
Chain of P38a (Q16539 whole entry): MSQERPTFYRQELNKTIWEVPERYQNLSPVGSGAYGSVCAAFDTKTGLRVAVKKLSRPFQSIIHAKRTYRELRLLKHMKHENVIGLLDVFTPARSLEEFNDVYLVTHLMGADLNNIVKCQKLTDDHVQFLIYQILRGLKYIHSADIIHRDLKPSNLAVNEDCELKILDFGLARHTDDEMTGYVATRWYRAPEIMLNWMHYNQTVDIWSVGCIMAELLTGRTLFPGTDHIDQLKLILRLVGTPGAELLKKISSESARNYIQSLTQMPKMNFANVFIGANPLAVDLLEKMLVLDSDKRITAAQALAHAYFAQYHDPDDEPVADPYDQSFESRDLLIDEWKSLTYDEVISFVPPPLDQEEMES

SMILES | IC50 (EGFR-L858R) | inhibition at 1 µM (PIM1) | inhibition at 10 µM (PIM1) | inhibition at 1 µM (FLT1) | inhibition at 10 µM (FLT1) | inhibition at 1 µM (C-MET) | inhibition at 10 µM (C-MET) | inhibition at 1 µM (PKACa) | inhibition at 10 µM (PKACa) | inhibition at 1 µM (P38a) | inhibition at 10 µM (P38a) | inhibition at 1 µM (BLK) | inhibition at 10 µM (BLK) | inhibition at 1 µM (LCK) | inhibition at 10 µM (LCK) | inhibition at 1 µM (FGFR1) | inhibition at 10 µM (FGFR1) | inhibition at 1 µM (LYNA) | inhibition at 10 µM (LYNA) | inhibition at 1 µM (KDR) | other results
C=CC(=O)Nc1cccc(-n2c(=O)cnc3cnc(Nc4ccc(N5CCN(C)CC5)cc4)nc32)c1 [Compound 020, N-(3-(2-(4-(4-methyl-1-piperazinyl)-phenylamino)-7-oxo-8(7H)-pteridin-yl)phenyl) acrylamide] | 1.2 nM | 8.2% | 54% | 17% | 58% | 27% | 53% | 15% | 4.7% | 2.8% | 21% | 99% | 100% | 18% | 73% | 19% | 63% | 11% | 40% | 25% | inhibition at 10 µM (KDR): 73%; inhibition at 1 µM (FLT3): 82%; inhibition at 10 µM (FLT3): 99%; inhibition at 1 µM (CDK2): 18%; inhibition at 10 µM (CDK2): 49%; inhibition at 1 µM (HER4): 60%; inhibition at 10 µM (HER4): 72%; inhibition at 1 µM (HER2): 97%; inhibition at 10 µM (HER2): 98%; inhibition at 1 µM (GSK3b): 16%; inhibition at 10 µM (GSK3b): 34%; inhibition at 1 µM (AUR B): 52%; inhibition at 10 µM (AUR B): 87%; inhibition at 1 µM (JAK2): 22%; inhibition at 10 µM (JAK2): 36%; inhibition at 1 µM (ABL): 11%; inhibition at 10 µM (ABL): 39%; IC50 (wild-type EGFR): 1.47 nM
C=CC(=O)Nc1cccc(-n2c(=O)cnc3cnc(Nc4ccc(N5CCN(C)CC5)cc4OC)nc32)c1 [Compound 032, N-(3-(2-(2-methoxy-4-(4-methyl-1-piperazinyl)-phenylamino)-7-oxo-8(7H)-pteridin-yl)phenyl)acrylamide] | 2.36 nM | 2.1% | 8.9% | 9.4% | 11% | 13% | 28% | 6.9% | 4% | -5.6% | 1.2% | 85% | 99% | 14% | 54% | 7.9% | 42% | 6.1% | 20% | 3.8% | inhibition at 10 µM (KDR): 29%; inhibition at 1 µM (FLT3): 60%; inhibition at 10 µM (FLT3): 91%; inhibition at 1 µM (CDK2): 25%; inhibition at 10 µM (CDK2): 48%; inhibition at 1 µM (HER4): 60%; inhibition at 10 µM (HER4): 77%; inhibition at 1 µM (HER2): 89%; inhibition at 10 µM (HER2): 100%; inhibition at 1 µM (GSK3b): 12%; inhibition at 10 µM (GSK3b): 16%; inhibition at 1 µM (AUR B): 32%; inhibition at 10 µM (AUR B): 69%; inhibition at 1 µM (JAK2): 9.9%; inhibition at 10 µM (JAK2): 22%; inhibition at 1 µM (ABL): 5.8%; inhibition at 10 µM (ABL): 13%; IC50 (wild-type EGFR): 3.67 nM
